The source of these data is PMC4838890, “Dynamic and flexible H3K9me3 bridging via HP1β dimerization establishes a plastic state of condensed chromatin” (Nature Communications, 2016).

Like-named read-outs stand apart in the source and are kept apart here.

In data set [1] the test system is DNA fragment of 150 bp. Nature of the data set: Electrophoretic mobility shift assay (EMSA). To be noted: 150 bp DNA, 0, 3, 9 μM protein, 100 mM NaCl, 5 mM MgCl2, RT. It counts as binding. Here is the method:
50 ng 150 bp DNA amplified from the backbone of pUC18 was incubated with 0, 3, 9 μM recombinant protein in 10 μl EMSA buffer (10 mM Tris-HCl (pH 8.0), 100 mM NaCl, 5 mM MgCl2) for 20 min at room temperature (RT). 2 μl 50% (v/v) glycerol was added and samples were loaded onto 6% native PAGE gels. After electrophoresis, DNA was visualized by staining with 1 × SYBR Gold/0.25 × TBE for 20 min at RT. Images were captured using a ChemiDoc MP Imaging System (Bio-Rad, München, Germany). […]
crosslinking Fig. S6e,f nucleosomes […]
crosslinking Fig. S7a,b nucleosomes
EMSA Fig. 1g; Fig. 5c; n//a RT 100 5
1Preincubation of oligonucleosomes and h HP1β was performed at 4 °C . Measurements wer e carried out at the in dicated te mperature.
2in increments o f 0 .5 mM
3MgCl2 was added at the end of incubation to coprecipitate oligonucleosomes a nd bound hHP1β.
Background: Mobility shift assays separate free from complexed probe on a gel.

Data set [2] concerns the target H3KC9me3 peptide. Briefly: ITC, H3KC9me3 peptide. The data set is classed as binding. To be noted: for Kd: ITC, pH 7.5, 25°C, read-out: Kd (apparent dissociation constant). As to the method: ITC measurements were performed on a iTC200 calorimeter (Microcal, Malvern, UK) at 25°C in binding buffer (10 mM triethanolamine (pH 7.5), 20 or 150 mM NaCl, 0.1 mM EDTA). Reaction heats were recorded by sequences of 37 injections of 1.8 mM hHP1β, spaced at 120 s intervals, into 250 μl of 60 μM H3 peptides, nucleosomes or oligonucleosomal arrays under constant stirring at 1,000 r.p.m. (injection #1–10: 0.5 μl each; injection #11–32: 1 μl each; injection #33–37: 2 μl each). Heats of dilution, obtained by the titration of hHP1β into buffer, were substracted from raw data before analysis. Raw data were integrated, normalized and the apparent heat change (Δq) of the reaction was plotted against the molecular ratio using the Origin software. For the determination of apparent enthalpy changes (ΔHapp), the molar association constant (KA), and the stoichiometry (n) of the interaction, non-linear least-square fitting of the Δq values was performed by the Origin software using a binding model of one set of identical binding sites.
Supplementary Table 1: Summary of conditions used in the different experiments of this study. experiment result modification template Temp. [NaCl] [MgCl2] […]
chromatin Fig. 1e,f; Fig. S1f-h; H3K9me3 oligo- 4 150 5 coprecipitation Fig. S2b nucleosomes
Fig. S7d,f; Fig.S9c nucleosomes […]
chromatin sedimentation Fig. 4a; H3K9me3 oligo- 4 150 0
(single point) Fig. S3b nucleosomes […]
chromatin sedimentation. oligo-(titration) Fig. 3a H3K9me3 nucleosomes 4 150 0
Background: In ITC the heat of successive injections is recorded.

Data set [3] relates to H3KC9me3 oligonucleosomes. Briefly: Chromatin coprecipitation, H3KC9me3 oligonucleosomes. It counts as binding, Xenopus laevis. As to the method:
6.7 nM oligonucleosomes were incubated with 1 μM recombinant protein in 100 μl binding buffer (10 mM triethanolamine (pH 7.5), 150 mM NaCl, 5 mM MgCl2, 0.1 mM EDTA, 0.1% (v/v) Triton-X100) for 1 h on ice. Precipitated chromatin complexes were recovered by centrifugation at 16,100g for 30 min at 4°C. Pellets were washed once with 0.5 ml binding buffer and centrifuged for 15 min at 4 °C. Precipitated material was resuspended in 10 μl 1 × SDS loading buffer and boiled for 5 min before running on SDS–PAGE.
Supplementary Table 1: Summary of conditions used in the different experiments of this study.
experiment result modification template Temp. [NaCl] [MgCl2]
chromatin Fig. 1e,f; Fig. S1f-h; H3K9me3 oligo- 4 150 5

Data set [4] has as its target fluorescein-labeled H3K9me3-peptide. Nature of the data set: Fluorescence polarization (FP), H3K9me3 peptide. It counts as binding. Conditions: 150 mM NaCl, 10 mM triethanolamine pH 7.4, 0.1 mM EDTA, 2 mM DTT, 4°C, read-out: apparent Kd. Here is the method:
Experiments were performed in 10 mM triethanolamine HCl (pH 7.4), 150 mM NaCl, 0.1 mM EDTA, 2 mM DTT. Titration series of 10 μl volume in 384-well plates were read multiple times on a Plate CHAMELEON II plate reader (HIDEX Oy, Turku, Finland). Multiple readings and independent titration series were averaged after data normalization. […]
hHP1β) using mass spectrometry. For detailed listing of the identified crosslinks see Supplementary […]
(c) Binding of the indicated hHP1β wild type (WT) and mutant proteins to a fluorescein-labeled H3K9me3-peptide was analyzed by FP at 150 mM NaCl. Apparent Kd deduced from the fitted curves are […]
(d) Chromatin coprecipitation of hHP1β WT and mutant proteins with oligonucleosomes. Precipitated material was run on SDS-PAGE and stained with Coomassie Blue. Input, 10 %.
(e) Oligonucleosomes at 2.5 nM were incubated with hHP1β wild type (WT) or mutant proteins at 5 µM and 150 mM NaCl (saturating conditions). DNA remaining in the supernatant after centrifugation was incubated with EtBr and measured by fluorescence reading. Data were n ormalized to DNA levels present in the input. […]
(g) Oligonucleosomes at 6.7 nM were incubated with hHP1β wild type (WT) or mutant proteins at 5 µM and 100 mM NaCl (non-saturating conditions). DNA remaining in the supernatant after centrifugation was incubated with EtBr and measured by fluorescence reading. […]
A general note: In fluorescence polarisation assays a small probe gives low polarisation when free and higher when bound to something large.

Data set [5] can be described thus: Multimerization beyond dimer. It counts as physicochemical. Conditions: dynamic light scattering, SAXS, protein cross-linking, nuclear magnetic resonance.
For data set [6], the target named is self-dimerization. To be noted: ref [9][20]; read-out: dimerization Kd in solution; cited from earlier work. Here is the method: To test this hypothesis, we analysed an hHP1β chimera where the CSD was replaced with an unrelated dimerization module. We used glutathione S-transferase (GST), as it is known to form dimers of similar strength as hHP1β WT in solution (Kd<1 nM)[9][20].

In the case of “hHP1β WT: recombinant human heterochromatin protein 1β (GenBank NM_001127228), 185 aa”, the DNA binding result in data set [1] was “hHP1α but not hHP1β showed a high level of general DNA binding”. The Kd in data set [2] (20 mM NaCl) is 11 ± 4 µM; in data set [2] (150 mM NaCl), 21 ± 3 µM; in data set [4], 5 ± 2 µM; in data set [6], below 0.001 µM. For the same substance, in data set [2] (Table 1, ref [17]), the “reduced binding to H3-tail peptide containing H3KC9me compared with methylated lysine” value is recorded as “sixfold reduced binding”. Besides, in data set [3] (6.7 nM oligonucleosomes, 1 μM protein, 150 mM NaCl, 5 mM MgCl2), the “recovery with H3KC9me3 oligonucleosomes” value was “bound specifically to H3K9me3 oligonucleosomes irrespective of the saturation level of the chromatin template”. Also, in data set [3] (saturating protein concentrations), the “molecules bound per nucleosome” value is “two”. The “multimerization beyond CSD-mediated dimerization” value in data set [5] is “failed to detect any multimerization of hHP1β beyond CSD-mediated dimerization”.
